We go through 16 molecules from patent US20060046981A1, “Anti-nonmelanoma carcinoma compounds, compositions, and methods of use thereof” (GILEAD SCIENCES, INC., priority 2003, published 2006).

Like-named read-outs stand apart in the source and are kept apart here.

In one experiment the test system is HEL cells. The experiment can be described thus: Antiproliferation assay (7 days, Sulforhodamine B) in HEL fibroblasts. To be noted: read-out: Antiproliferation EC50 HEL lung fibroblast. It counts as cell-based, human. Here is the method:
(§1) Cells were detached from culture flasks using trypsin, counted, and plated in 96-well culture plates (250-1000 cells per well, depending on cell type). On the next day (defined as day 0), after cells attached to the bottom of plates, 5-fold serial dilutions of compounds were added in duplicate. No compound and 10 μM colchicine (cell division inhibitor) was added to control wells, which would represent 100% proliferation and 0% proliferation, respectively.
(§2) Seven days after addition of compounds, culture plates were treated with 10% trichloroacetic acid at 4° C. for 1 hr, then washed with water. This procedure allows cell-derived proteins to bind to the bottom surface of plates. Proteins were stained with 0.4% Sulforhodamine B in 1% acetic acid for 10 minutes, followed by extensive washing with 1% acetic acid. Remaining dye bound to the bottom of plates was dissolved in 10 mM Trizma base. This generated purple color that was quantified by measuring the absorbance at 510 nm wavelength, using spectrophotometer.
(§3) Cells were detached from culture flasks using trypsin, counted, and plated in 96-well culture plates ([…], depending on cell type). On the next day (defined as day 0), 5-fold serial dilutions of compounds were added in duplicate. Seven days after addition of compounds, culture plates were treated with 10% trichloroacetic acid at 4° C. for 1 hr and washed with water. This procedure allows cellular proteins to bind to the bottom surface of plates. Proteins were stained with 0.4% Sulforhodamine B in 1% acetic acid for 10 minutes, followed by extensive washing with 1% acetic acid. Remaining dye bound to the bottom of plates was solubilized in 10 mM Trizma base, generating purple color. Intensity of the color (proportional to cell number) was quantified by measuring the absorbance at 510 nm wavelength, using spectrophotometer. […] GraphPad Prism version 4.00 for Windows (GraphPad Software, San Diego Calif. USA) was used for the curve fitting and EC50 calculation.

For the next experiment, the system named is SiHa cells. The experiment can be described thus: Antiproliferation assay (7 days, Sulforhodamine B) in SiHa cells. The experiment is classed as cell-based, human. To be noted: for Selectivity (HEL/SiHa): HEL EC50 divided by SiHa EC50; for Selectivity for SiHa cells compared with HEL cells: Example 80, also versus PHK keratinocytes, fold. Here is the method: Antiproliferation assays measure effect of compounds on proliferation of cultured cells. Cells are cultured for 7 days in the presence of various concentrations of compounds. On the 7th day, cells are stained with dye, and intensity of staining (proportional to cell number) is measured by spectrophotometer.
as §1, §2, §3

A further experiment concerns HPV-16 SiHa cells. The experiment is classed as cell-based, human. To be noted: day 7, 0.2 μg/mL, Annexin V-Propidium iodide double staining.
In another experiment the test system is PHK skin keratinocytes. Kind of experiment: cells. To be noted: Homo sapiens, Keratinocyte; Table 79-3; read-out: Antiproliferation EC50 PHK skin keratinocytes. It counts as cell-based.
Experiment [1] concerns CK cervical keratinocytes. The experiment can be described thus: cells. It counts as cell-based. To be noted: Homo sapiens, Keratinocyte; Table 79-3; read-out: Antiproliferation EC50 CK cervical keratinocytes.
A further experiment relates to HT-3 cells. Kind of experiment: Antiproliferation assay in HT-3 cells. To be noted: Homo sapiens, Table 79-4, read-out: Antiproliferation EC50 in HPV negative carcinoma cells HT-3 cervix. The experiment is classed as cell-based.
Another experiment deals with HeLa cells. Kind of experiment: Antiproliferation assay in HeLa cells. The experiment is classed as cell-based. To be noted: Homo sapiens, Table 79-4, read-out: Antiproliferation EC50 in HPV positive carcinoma cells HeLa HPV18.
The subject of a further experiment is SCC-4 cells. The experiment can be described thus: Antiproliferation assay in SCC-4 cells. To be noted: Homo sapiens, Table 79-4, read-out: Antiproliferation EC50 in HPV negative carcinoma cells SCC-4 tongue. It counts as cell-based.
For another experiment, the system named is C-4 I cells. The experiment can be described thus: Antiproliferation assay in C-4 I cells. It counts as cell-based. To be noted: Homo sapiens, Table 79-4, read-out: Antiproliferation EC50 in HPV positive carcinoma cells C-41 HPV18.
In another experiment the test system is MS751 cells. Kind of experiment: Antiproliferation assay in MS751 cells. It counts as cell-based. To be noted: Homo sapiens, Table 79-4, read-out: Antiproliferation EC50 in HPV positive carcinoma cells MS-751 HPV18.
The test system of the next experiment is CaSki cells. The experiment can be described thus: Antiproliferation assay in CaSki cells. It counts as cell-based. To be noted: Homo sapiens, Ca-Ski; Table 79-4; read-out: Antiproliferation EC50 in HPV positive carcinoma cells CaSki HPV16.
Another experiment deals with SCC-9 cells. The experiment can be described thus: Antiproliferation assay in SCC-9 cells. It counts as cell-based. To be noted: Homo sapiens, Table 79-4, read-out: Antiproliferation EC50 in HPV negative carcinoma cells SCC-9 tongue.
A further experiment deals with ME-180 cells. Kind of experiment: Antiproliferation assay in ME-180 cells. To be noted: Homo sapiens, Table 79-4, read-out: Antiproliferation EC50 in HPV positive carcinoma cells ME-180 HPV39. The experiment is classed as cell-based.
The mark [2] stands for this setting: Homo sapiens, HEL, 168 h, Table 79-2, 7 days.
Where [3] appears, read: Homo sapiens, SiHa, 168 h, Table 79-2, 7 days, read-out: Antiproliferation EC50 SiHa cervical carcinoma (HPV16).
The mark [4] stands for this setting: Homo sapiens, SiHa, Table 79-3, read-out: Antiproliferation EC50 SiHa cervical carcinoma (HPV16).
Where [5] appears, read: Table 79-2, 7 days, read-out: Antiproliferation EC50 SiHa cervical carcinoma (HPV16).

Take `O=C1c2c(O)ccc(O)c2C(=O)c2c(NCCNCCO)ccc(NCCNCCO)c21` [Mitoxantrone]: the EC50 with HEL cells (setting [2]) was below 3.2 nM; in the experiment with SiHa cells (setting [3]), 8.67 nM. The “Selectivity (HEL/SiHa)” value in the experiment with SiHa cells (Table 79-2) is below 0.37.
On the same counts, the results for `C[C@H]1O[C@@H](n2cc(F)c(=O)[nH]c2=O)[C@H](O)[C@@H]1O` [Doxifluridine] are 3930 nM, 8760 nM and 0.449.
Taken in the same sequence, the figures for `CC[C@]1(O)C[C@@H]2CN(CCc3c([nH]c4ccccc34)[C@@](C(=O)OC)(c3cc4c(cc3OC)N(C)[C@H]3[C@@](O)(C(=O)OC)[C@H](OC(C)=O)[C@]5(CC)C=CCN6CC[C@]43[C@@H]65)C2)C1` [Vinblastine] were 0.27 nM, 0.68 nM and 0.39.
In the case of `Nc1nc2c(ncn2CCOCP(=O)(O)O)c(=O)[nH]1` [PMEG, 9-(2-phosphonylmethoxyethyl)guanine], the “% of apoptotic cells in the culture” value in the experiment on HPV-16 SiHa cells was found to be 1.2%. For the same molecule, the EC50 in the experiment with HEL cells (setting [2]) came out at 861 nM; with PHK skin keratinocytes, 101 nM; in the experiment on SiHa cells (setting [3]), 207 nM; in the experiment with SiHa cells (setting [4]), 207 nM; in experiment [1] it was 501 nM. For the same molecule, the “Selectivity for SiHa cells compared with HEL cells” value (“Selectivity for SiHa cells” below) in the experiment with SiHa cells was “did not show such selectivity”. Also, in the experiment with SiHa cells (Table 79-2), the “Selectivity (HEL/SiHa)” value is given as 4.1. In addition, the “Selectivity (CK/SiHa)” value in the experiment with SiHa cells (Table 79-3) was found to be 2.4. The “Selectivity (PHK/SiHa)” value in the experiment on SiHa cells (Table 79-3) is given as 0.48.
For the molecule `Nc1ccn([C@@H]2O[C@H](CO)[C@@H](O)C2(F)F)c(=O)n1` [gemcitabine], the “Selectivity for SiHa cells” value with SiHa cells was “did not show such selectivity”.
On to `COc1cccc2c1C(=O)c1c(O)c3c(c(O)c1C2=O)C[C@@](O)(C(=O)CO)C[C@@H]3O[C@H]1C[C@H](N)[C@H](O)[C@H](C)O1` [Doxorubicin], for which the EC50 is 4.2 nM with HEL cells (setting [2]) and 9.76 nM in the experiment on SiHa cells (setting [3]). Also, in the experiment with SiHa cells (Table 79-2), the “Selectivity (HEL/SiHa)” value came out at 0.43.
With `Nc1ccn([C@@H]2O[C@H](CO)[C@@H](O)[C@@H]2O)c(=O)n1` [AraC, cytarabine], the EC50 in the experiment with HT-3 cells was found to be 214 nM; with HeLa cells, 174 nM; with SCC-4 cells, 74 nM; in the experiment on C-4 I cells, 123 nM; with HEL cells (setting [2]), 29 nM; in the experiment on MS751 cells, 144 nM. For the same molecule, the EC50 was 147 nM in the experiment with PHK skin keratinocytes; 257 nM with SiHa cells (setting [3]); 257 nM in the experiment on SiHa cells (setting [4]); 257 nM in the experiment on SiHa cells (Homo sapiens, SiHa, Table 79-4, read-out: Antiproliferation EC50 in HPV positive carcinoma cells SiHa HPV16); 94 to 257 nM with SiHa cells (Homo sapiens, six HPV positive cell lines: SiHa, CaSki, HeLa, MS751, C-4I, ME-180, read-out: Antiproliferation EC50 values, range over all cell lines); 94 nM in the experiment on CaSki cells. In addition, the EC50 in the experiment with SCC-9 cells is 68 nM; in the experiment with ME-180 cells, 101 nM; in experiment [1] it was 107 nM. Also, the “Selectivity for SiHa cells” value with SiHa cells was “did not show such selectivity”. For the same molecule, in the experiment on SiHa cells (Table 79-2), the “Selectivity (HEL/SiHa)” value was 0.113. Also, in the experiment with SiHa cells (Table 79-3), the “Selectivity (CK/SiHa)” value amounted to 0.4. Also, in the experiment on SiHa cells (Table 79-3), the “Selectivity (PHK/SiHa)” value was determined as 0.57.
Consider `COc1cc([C@@H]2c3cc4c(cc3[C@H](O)[C@H]3COC(=O)[C@H]23)OCO4)cc(OC)c1OC` [Podofilox], for which the “Selectivity for SiHa cells” value with SiHa cells is recorded as “showed no selectivity”.
`Nc1ccn(C[C@@H](CO)OCP(=O)(O)O)c(=O)n1` [Cidofovir]: the results for the EC50 in the experiment on HEL cells (setting [2]) and in the experiment with SiHa cells (setting [3]) were 28000 nM and 84000 nM, respectively. Moreover, the “Selectivity (HEL/SiHa)” value with SiHa cells (Table 79-2) is reported as 0.3.
On the same counts, the results for `CN(C)/N=N/c1[nH]cnc1C(N)=O` [Dacarba-zine, Dacarbazine] are 29500 nM, 7400 nM and 3.98.
Taken in the same sequence, the figures for `COc1cc([C@@H]2c3cc4c(cc3[C@@H](O[C@@H]3O[C@@H]5CO[C@@H](C)O[C@H]5[C@H](O)[C@H]3O)[C@H]3COC(=O)[C@H]23)OCO4)cc(OC)c1O` [Etoposide] were 144 nM, 469 nM and 0.31.
In the case of `C[C@@]1(CO)[C@H](O)CC[C@@]2(C)[C@H]1CC[C@H]1C[C@@H]3C[C@@]12CC[C@]3(O)CO` [Aphidicolin (+), Aphidicolin], the EC50 in the experiment with HEL cells (Table 79-2, 7 days) was 324 nM; in the experiment on SiHa cells (setting [5]), 856 nM. In the experiment on SiHa cells (Table 79-2), the “Selectivity (HEL/SiHa)” value is given as 0.40.
For `Cc1c2ccncc2c(C)c2c1[nH]c1ccccc12` [Ellipticine], the EC50 is 486 nM in the experiment with HEL cells (setting [2]) and 478 nM in the experiment on SiHa cells (setting [3]). Further, the “Selectivity (HEL/SiHa)” value with SiHa cells (Table 79-2) came out at 1.02.
On the same counts, the results for `CC[C@]1(O)C[C@H]2CN(CCc3c([nH]c4ccccc34)[C@@](C(=O)OC)(c3cc4c(cc3OC)N(C=O)[C@H]3[C@@](O)(C(=O)OC)[C@H](OC(C)=O)[C@]5(CC)C=CCN6CC[C@]43[C@@H]65)C2)C1` [Vincristine] are 1.92 nM, 1.24 nM and 1.55.
With Bleomycin, the EC50 in the experiment on HEL cells (Table 79-2, 7 days) came to 20.3 nM; in the experiment on SiHa cells (setting [5]), 3140 nM. Further, the “Selectivity (HEL/SiHa)” value in the experiment with SiHa cells (Table 79-2) is 0.01.
With `COc1cc2c(c(N)c1OC)C(=O)/C(=C\c1cc(C)c(O)c(C)c1)C2` [Indanosine, Indanocine], the EC50 with HEL cells (Homo sapiens, HEL, 168 h) came to 159 nM; with SiHa cells (Homo sapiens, SiHa, 168 h, read-out: Antiproliferation EC50 SiHa cervical carcinoma (HPV16)) it was 588 nM.
